Measured values as given in the METLIN SMRT retention time set (Domingo-Almenara et al. 2019).

Experiment: gradient 5% acetonitrile 3 min, to 50% in 2 min, to 85% in 15 min, held 3 min, 100 µL/min
Settings: column: Zorbax Extend-C18 2.1 x 50 mm; eluents: water / acetonitrile, 0.1% formic acid
Method in brief: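 The mobile phases were water and acetonitrile, each with 0.1% formic acid, pumped at 100 μL/min through a Zorbax Extend-C18 column (2.1 × 50 mm, 1.8 μm). Pure standards were injected as mixtures of ~100 molecules and detected by a quadrupole time-of-flight mass spectrometer in positive and negative ionization mode. Retention time came from computationally picked adduct peaks, each inspected by hand.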

| SMILES | RP-LC retention time |
| --- | --- |
| Cc1ccc(C)c(-c2csc(Cc3nc(-c4ccc(F)cc4)no3)n2)c1 | 1300 s |
| COc1cc(OC)c(NC(=O)CSc2nccnc2N2CCSCC2)cc1Cl | 1020 s |
| CCC(=O)N1CCc2cc(N3CC(C(=O)N4CCN(C(C)C)CC4)CC3=O)ccc21 (centres undefined) | 580 s |
| CCc1noc([C@@H]2CC(F)(F)CN2C(=O)c2cnco2)n1 | 690 s |
| Cn1cc(C(=O)NCc2ccc3c(c2)OCO3)c2cccnc21 | 706 s |
| Cc1ccccc1-c1nc2cnccn2c1NCCC(=O)NC1CCCCC1 | 678 s |
| CCCCN1CCN(C(=O)c2nc(N3CCSCC3)c3c(C)cc(C)nc3n2)CC1 | 581 s |
| CN1CCCCCCN(S(=O)(=O)c2cccc3nsnc23)CCC1=O | 783 s |
| CCN1CCn2cc(S(=O)(=O)Nc3cccc(C)c3)cc2C1=O | 736 s |
| Cc1sc2ccn(CC(C)C)c(=O)c2c1C(=O)N1CCN(C2CCCCC2)CC1 | 642 s |
| CC(C)c1noc(-c2cc(=O)n(CC(=O)Nc3cccc(F)c3)c3ccccc23)n1 | 1020 s |
| Cc1cccc(Nc2c(-c3ccc(N(C)C)cc3)nc3ncccn23)c1 | 745 s |
| CC(=O)N1CCCN(C2=NS(=O)(=O)C(c3ccc(F)cc3)=C2C)CC1 | 690 s |
| CCOC(=O)c1c(-c2cccs2)csc1NC(=O)CSc1ncn[nH]1 | 815 s |
| COc1c(C(=O)NCc2cc(F)cc(F)c2)sc2ccc(F)cc12 | 1070 s |
| CCOC(=O)Cn1c(C2CC(=O)N(c3ccccc3F)C2)nc2ccccc21 (centres undefined) | 746 s |
| Cc1cccc(C(=O)NC2CCN(c3nnc4ccccn34)CC2)c1 | 645 s |
| CCOC(=O)c1cn(Cc2ccccc2C)c2nc(C)ccc2c1=O | 909 s |
| Cn1cc(S(=O)(=O)N2CCC(C(=O)NCc3cccnc3)CC2)cc1C(=O)N1CCCC1 | 674 s |
| Cc1ccc(-c2cn3c(CC(=O)Nc4ccc(C#N)cc4)csc3n2)cc1C | 821 s |
| O=C(Nc1nc(CC(=O)N2CCn3c2nc2ccccc23)cs1)c1ccsc1 | 657 s |
| CCOc1ccccc1NC(=O)c1cncc(NS(=O)(=O)c2ccc(OC)cc2)c1 | 798 s |
| CCC(=O)N1CCC(N2C(=O)C(O)C23CCCCC3)CC1 (centres undefined) | 590 s |

| SMILES | RP-LC retention time |
| --- | --- |
| COc1ccc(CC(=O)N2CCc3cc(-c4csc(C)n4)ccc32)cc1 | 1060 s |
| O=C(C1=CN(c2ccc(F)cc2)c2cc(F)ccc2S1(=O)=O)N1CCCCC1 | 858 s |
| Cc1noc(C)c1C(=O)N1CCCC1Cc1noc(C2CCCC2)n1 (centres undefined) | 820 s |
| O=C(Nc1nc2c(s1)COc1ccccc1-2)C1COc2ccccc2O1 (centres undefined) | 980 s |
| COc1ccc(-c2csc3ncnc(NCCN4CCOCC4)c23)cc1 | 569 s |
| CCN1C(=O)c2cccnc2Sc2cc(NC(C)=O)ccc21 | 627 s |
| Cc1nn(-c2ccc(-c3ccccc3)nn2)c(C)c1S(=O)(=O)N1CCCC(C)C1 (centres undefined) | 1170 s |
| O=C(CN1c2ccc(F)cc2-c2ccccc2S1(=O)=O)Nc1ccc(F)c(F)c1 | 974 s |
| CCC1CCCCN1CCCNC(=O)c1cn(CCOC)c(=O)c2c1c1ccccc1n2C (centres undefined) | 631 s |
| COc1ccccc1-c1noc(Cn2c(=O)n(Cc3ccccc3Cl)c(=O)c3sccc32)n1 | 1130 s |
| CC(C)c1noc(-c2cc(=O)n(CC(=O)NCc3cccs3)c3ccccc23)n1 | 933 s |
| Cc1cc2nc(CSc3nnc(-c4ccc(Cl)cc4)o3)cc(=O)n2o1 | 786 s |
| CC(C)Cc1cc(-c2nnc3sc(-c4ccccc4F)nn23)n[nH]1 | 889 s |
| Nc1nc(N2CCCC2)ncc1C(=O)NCc1ccccc1F | 643 s |
| Cc1ccccc1C(=O)Nc1ccccc1NC(=O)C1CCC1 | 795 s |
| Cc1nn(-c2ccc(Cl)cc2)c(C)c1S(=O)(=O)N1CCC(C(=O)N2CCOCC2)CC1 | 810 s |
| O=C(Cn1cnc2ccccc2c1=O)N1CCCC1 | 612 s |
| Cn1nc(-c2nc(C3CC3)no2)c2c1CCN(C(=O)c1ccc(C(C)(C)C)cc1)C2 | 1290 s |
| CCN(CC)C(=O)C1CCN(S(=O)(=O)c2ccc3c(c2)NC(=O)CO3)CC1 | 680 s |
| Cc1oc(C2CCN(S(=O)(=O)c3cc(F)ccc3F)CC2)nc1C(=O)N(C)C | 816 s |
| CCOC(=O)c1cc(S(=O)(=O)N2CCCC2C(=O)NCc2cccs2)cn1C (centres undefined) | 823 s |
| O=C(Nc1cccc(C(F)(F)F)c1)N1CC(c2nc(-c3cccs3)no2)C1 | 917 s |
| CCOc1cccc2cc(C(=O)N3CCOCC3)oc12 | 718 s |

| SMILES | RP-LC retention time |
| --- | --- |
| O=C(CCCc1nc2ccccc2s1)N1CCC(CCOc2ccccc2)C1 (centres undefined) | 1050 s |
| CS(=O)(=O)N[C@H]1C[C@@H]2C[C@H]1CN2C(=O)c1ccc(C(F)(F)F)s1 | 663 s |
| O=C(NC1CC1)C1(F)CCN(S(=O)(=O)c2ccccc2)CC1 | 673 s |
| COc1ccc(-c2cn3ccn(-c4cccc(Cl)c4)c(=O)c3n2)cc1 | 837 s |
| CCc1cccc(NC(=O)Cn2c(N)nc(C)cc2=O)c1 | 618 s |
| O=C(Cn1ccc2ccc(N3CCOCC3)nc21)NCc1ccc(F)c(Cl)c1 | 920 s |
| Cc1cccc2nc(-c3ccc(N4CCOCC4)cc3)c(Nc3ccc4c(c3)OCO4)n12 | 676 s |
| CC(C)n1cc(S(=O)(=O)N2CCN(c3ccccc3Cl)CC2)c2cccnc21 | 761 s |
| COc1ccc(NC(=O)NCCc2cn(C)c3ncccc23)cc1OC | 612 s |
| Cc1ccc(S(=O)(=O)Nc2ccc3c(c2)CCC(=O)N3CC(C)C)cc1C | 939 s |
| COC(=O)C1=C(C)N(C2CCCC2)C(=O)C1(NC(=O)c1ccccc1OC)C(F)(F)F (centres undefined) | 1070 s |
| COc1cccc(CNC(=O)C2CCN(Cc3cn(C)c4ccc(Cl)cc34)CC2)c1 | 700 s |
| Cc1nc2ccc(N)nc2nc1C | 594 s |
| O=C(C1CCN(c2ccc(Sc3ccc(Cl)cc3)nn2)CC1)N1CCN(c2ccccn2)CC1 | 644 s |
| CCOC(=O)c1noc2ncnc(N3CCN(c4ccccc4F)CC3)c12 | 1070 s |
| CCc1nnc2ccc(-c3noc(-c4cccc(F)c4)n3)cn12 | 936 s |
| O=C(CN1N=C(C(=O)Nc2ccc(F)cc2)CCC1=O)Nc1ccc(F)c(F)c1 | 838 s |
| CCNC(=O)NC1CCN(c2nc3cccnc3n(Cc3ccccc3)c2=O)CC1 | 877 s |
| CCN1C(=O)c2cccnc2Sc2cc(NC(=O)COc3ccc(F)cc3)ccc21 | 872 s |
| COC(=O)c1ccc(NC(=O)NCc2noc3ccc(C)cc23)cc1 | 868 s |
| CCc1ccc(CNC(=O)C2CCCN(c3nccc(C)n3)C2)cc1 (centres undefined) | 820 s |
| O=C(c1cnc2ccccc2n1)N1CCN(Cc2nc(-c3ccc(F)cc3)cs2)CC1 | 719 s |
| CC(C)n1cnc(S(=O)(=O)N2CCCC(C(=O)Nc3cccc(C(F)(F)F)c3)C2)c1 (centres undefined) | 890 s |

| SMILES | RP-LC retention time |
| --- | --- |
| Cc1[nH]c(C)c(S(=O)(=O)N2CCC(C(=O)NC3CCCCC3)CC2)c1C(=O)N1CCCCC1 | 720 s |
| COc1ccc(-c2noc(CN3N=NC4C(=O)N(c5ccc(F)c(F)c5)C(=O)C43)n2)cc1 (centres undefined) | 1130 s |
| Cc1ccc(Cl)cc1N1CCN(C(=O)CCc2nnc3c4cc(-c5ccccc5)nn4ccn23)CC1 | 999 s |
| COc1cc(OC)cc(-n2nnc(-c3nsc(Nc4ccccc4OC)n3)c2C)c1 | 1050 s |
| Cc1ccc(OCC(=O)Nc2cc3c(cc2C)n(C)c(=O)n3C)cc1 | 980 s |
| COc1ccc(Cl)c2c(=O)c3c([nH]c12)CCN(CC(=O)Nc1ccc(C)cc1)C3 | 632 s |
| Cc1ccccc1N1C(=O)CN(S(=O)(=O)c2ccccc2)CC1(C)C(=O)NCc1ccc(F)cc1 (centres undefined) | 913 s |
| Fc1ccc(F)c(Cn2cccc2-c2nc(-c3ccncc3)no2)c1 | 1130 s |
| O=C(Cn1c(=O)c2cc(C3CC3)nn2c2ncccc21)NCc1ccccc1Cl | 766 s |
| O=C(Nc1ccc(-c2nc(-c3cccc(Br)c3)co2)cc1)c1ccco1 | 1150 s |
| Cc1nc(C(=O)NCCc2ccc(Cl)cc2)c(C)n1C1CCN(S(C)(=O)=O)CC1 | 689 s |
| COc1cccc(NS(=O)(=O)c2cc3c(s2)CCN(C(=O)C2CCC2)C3)c1 | 851 s |
| CSc1nc2cc(S(=O)(=O)N3CCCCC3)ccc2s1 | 1100 s |
| Cc1ccc(S(=O)(=O)N2CCC3(CC2)NCCN=C3NCc2cc(F)cc(F)c2)cc1 | 734 s |
| N#Cc1cccc(S(=O)(=O)N2CCc3nc(-c4ccc(F)cc4)ncc3C2)c1 | 1030 s |
| CN1C(=O)NC2(CCN(C(=O)c3cccs3)CC2)C1=O | 561 s |
| O=C(Cn1cnc2nc(N3CCC(C(=O)NC4CC4)CC3)sc2c1=O)Nc1ccc(Cl)cc1 | 686 s |
| Cc1ccc2c(Nc3ccc(Cl)cc3)c(-c3nc(C)no3)cnc2n1 | 785 s |
| Cc1nc(CC(=O)NC2CCCC2)sc1C(=O)NCc1ccccc1 | 734 s |
| Cc1ccc(NC(=O)Cn2c(=O)c(CCC(=O)NC3CCCC3)nc3ccccc32)cc1C | 863 s |
